This is an account of results in patent publication US20210030908A1 (priority 2013, published 2021).

Each structure is given as a SMILES string. Like-named read-outs stand apart in the source and are kept apart here.

In assay [1] the test system is Bacillus atrophaeus spore strip. In kind it is cell-based. The settings on record: for Sterilization (6-log reduction of Bacillus atrophaeus), Exposure Time 5 Minutes (CT = 250): 3,000 ppmv ClO2 in air, 700 feet/sec, nozzle 2.54 cm from target, CT in ppmv-hrs, per sample replicate.
Assay [2] has as its system anthrax spores. Conditions: gas or vapor phase application, prior art; cited from earlier work.
Assay [3] relates to mold spores. The settings on record: time averaged concentration about 500 to 1500 ppmv over a 12 hour period, prior art; cited from earlier work.

In the case of `[O][Cl+][O-]` [chlorine dioxide], the “Sterilization (6-log reduction of Bacillus atrophaeus), Exposure Time 5 Minutes (CT = 250)” value was “− (“−” indicates at least a 6-log reduction of Bacillus atrophaeus)” in assay [1] (Group 1 spore strips, pre-humidified for one hour at about 75 degrees F.) and “− (“−” indicates at least a 6-log reduction of Bacillus atrophaeus)” in assay [1] (Group 2 spore strips, no pre-humidification prior to test). Further, the “Oxidation of the target” value in assay [1] (every test (all exposure times, with and without pre-humidification)) is reported as “every test resulted in oxidation of the target”. The “Sterilization outcome” value in assay [1] (no pre-humidification, exposure times of 30 seconds, 1 minute, and 2 minutes, at CT's of 25, 50, and 100) is “some sterilization”; in assay [1] (no pre-humidification, exposure times of at least 5 minutes at a CT of 250) it was “successful sterilization of all targets”; in assay [1] (pre-humidified application zones, exposure times greater than or equal to 1 minute, CT greater than or equal to 50), “successful sterilization of the targets for all applications”. Also, the “Applications resulting in successful sterilization” value in assay [1] (pre-humidified application zones, 30 seconds at a CT of 25) is on record as 75%. In addition, in assay [2], the “CT found effective for sterilizing anthrax spores” value is listed as 9000 ppmv-hrs. The “CT found effective for killing mold spores and eliminating allergenic effects” value in assay [3] is 6000-18000 ppmv-hrs.
